Source: US20250057958A1, “CYTOTOXICITY TARGETING CHIMERAS FOR CCR2-EXPRESSING CELLS” (GLAXOSMITHKLINE INTELLECTUAL PROPERTY DEVELOPMENT LIMITED, priority 2022, published 2025)

Columns and labels:
[1] = biological target: T1, CHOK1 cells engineered to overexpress human CCR2 (Homo sapiens, UniProt P41597); assay: Antibody dependent cellular cytotoxicity (ADCC) reporter assay; format: cell-based; conditions: with anti-cotinine antibody (SEQ ID NO: 11/12, human IgG1 Fc S239D/I332E); Jurkat FcγRIIIa NFAT-luciferase reporter cells; 12-18 hours; average if more than one run; read-out: ADCC Reporter Assay pEC50 (converted)
T1 construct: expressed in transfected cells; host or cells: CHOK1 cells
Method: An antibody dependent cellular cytoxocity reporter assay was conducted using the following four assay components: (i) ARM compound of Formula (I) targeting CCR2 (concentrations ranging from 1 pM to 10 μM) (ii) anti-cotinine antibody having a heavy chain sequence of SEQ ID NO: 11 and a light chain sequence of SEQ ID NO: 12 (rabbit variable region with human IgG1 Fc domain containing a DE mutation (S239D/I332E)) (concentrations ranging from 0.01 μg/mL to 200 μg/mL); (iii) target cells: CHOK1 cells engineered to overexpress either human CCR2 (typically 1000-20,000 cells perwell) and (iv) reporter cells: Jurkat cells engineered to express FcγRIIIa with the reporter gene luciferase under the control of the NFAT promoter (typically 3000-75,000 cells per well). Reagents were combined in a final volume of 20 μL in a 384—well tissue culture treated plate. All four assay components were incubated together for about 12-18 hours. Thereafter, BioGlo Detection reagent (Promega) was added to the wells to lyse the cells and provide a substrate for the luciferase reporter protein. Luminescence signal was measured on a microplate reader and signal:background was calculated by dividing the signal of a test well by the signal obtained when no ARM compound of Formula (I) was added. EC50 calculations were done using Graphpad Prism Software, specifically a nonlinear regression curve fit (Y=Bottom+(Top−Bottom)/(1+10 ^((Log EC50−X)*HillSlope))).
ARMs compounds of Formula (I) of the invention were tested for ADCC activity in the above assay in or more experimental runs and the results are shown in Table 3 below. Potency of the compounds of Formula (I) of the invention is reported as a pEC50 value. The pEC50 value is the negative log of the EC50 value, wherein the EC50 value is the half maximal effective concentration measured in molar (M). For compounds tested in more than one experimental run, the pEC50 value is reported as an average.

[2] = biological target: human alpha1 nicotinic acetylcholine (nACh) receptor (Homo sapiens, UniProt P02708+Q07001); assay: Nicotinic acetylcholine receptor antagonism assay (IONFlux automated patch clamp); format: cell-based; conditions: for IC50: nAChR antagonism, stimulated with ACh, average if more than one run
Sequence of human alpha1 nicotinic acetylcholine (nACh) receptor (P02708 21-457): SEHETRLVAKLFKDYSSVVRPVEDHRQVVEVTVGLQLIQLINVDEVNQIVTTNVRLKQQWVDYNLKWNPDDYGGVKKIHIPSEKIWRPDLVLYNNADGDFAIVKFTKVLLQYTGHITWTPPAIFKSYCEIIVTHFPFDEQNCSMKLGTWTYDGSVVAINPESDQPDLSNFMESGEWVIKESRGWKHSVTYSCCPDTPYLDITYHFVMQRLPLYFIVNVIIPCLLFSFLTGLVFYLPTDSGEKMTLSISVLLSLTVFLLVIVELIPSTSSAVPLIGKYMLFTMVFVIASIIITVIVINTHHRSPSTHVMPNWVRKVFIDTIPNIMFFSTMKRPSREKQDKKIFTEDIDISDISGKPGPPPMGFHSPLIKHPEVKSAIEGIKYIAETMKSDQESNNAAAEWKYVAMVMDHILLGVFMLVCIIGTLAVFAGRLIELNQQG
Sequence of human alpha1 nicotinic acetylcholine (nACh) receptor (P11230 24-501 partner): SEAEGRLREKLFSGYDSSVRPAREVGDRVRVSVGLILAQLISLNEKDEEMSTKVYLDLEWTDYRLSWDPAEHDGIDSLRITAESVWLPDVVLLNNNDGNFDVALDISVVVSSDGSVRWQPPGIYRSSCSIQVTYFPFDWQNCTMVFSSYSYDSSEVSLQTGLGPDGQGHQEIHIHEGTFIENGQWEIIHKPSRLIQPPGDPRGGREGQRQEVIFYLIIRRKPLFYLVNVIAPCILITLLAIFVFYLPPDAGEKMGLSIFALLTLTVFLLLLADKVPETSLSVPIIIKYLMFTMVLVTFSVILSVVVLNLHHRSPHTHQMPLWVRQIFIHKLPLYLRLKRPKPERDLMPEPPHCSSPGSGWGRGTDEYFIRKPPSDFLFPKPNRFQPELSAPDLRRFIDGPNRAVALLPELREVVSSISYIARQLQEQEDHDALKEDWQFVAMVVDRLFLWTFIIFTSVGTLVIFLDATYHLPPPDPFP
Sequence of human alpha1 nicotinic acetylcholine (nACh) receptor (Q07001 22-517): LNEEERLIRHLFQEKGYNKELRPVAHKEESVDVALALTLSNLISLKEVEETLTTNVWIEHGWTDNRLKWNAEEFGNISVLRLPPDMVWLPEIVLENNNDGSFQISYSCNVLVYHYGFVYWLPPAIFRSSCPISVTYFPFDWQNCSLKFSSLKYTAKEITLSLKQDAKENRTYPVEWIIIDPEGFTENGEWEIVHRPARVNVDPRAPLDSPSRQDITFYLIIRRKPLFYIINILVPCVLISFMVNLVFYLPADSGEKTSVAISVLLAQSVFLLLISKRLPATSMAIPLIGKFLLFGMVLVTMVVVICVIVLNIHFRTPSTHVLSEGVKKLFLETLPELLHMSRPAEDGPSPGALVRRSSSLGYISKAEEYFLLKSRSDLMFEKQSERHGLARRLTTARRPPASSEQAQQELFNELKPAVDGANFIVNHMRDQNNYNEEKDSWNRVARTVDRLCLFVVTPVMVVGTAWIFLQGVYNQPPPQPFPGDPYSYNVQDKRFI
Excerpt: Cells expressing human alpha1 nicotinic acetylcholine (nACh) receptor (nAChR) were washed and dissociated using Trypsin containing buffer. Cells were then washed and seeded at a density of 3-5 million cells/mL and allowed to grow for 3 days. […] The receptor was then stimulated via addition of acetylcholine (ACh) and activation of the receptor was monitored via the IONFlux automated patch clamp system. IonFlux Data Analyzer software was utilized to perform leak subtraction and measure (min) peak current amplitude.
Data processing: (1) Current values recorded for vehicle only applications in individual traps/patterns were subtracted from corresponding current amplitude values for control, test article and control+test article. (2) Control response was calculated as % of the average response of the 3rd out of total 3 ACh (10 mM) applications alone. In rare situations, if the 3rd ACh response was obscured due to technical artifacts, the 2nd and/or 1st ACh (10 mM) application was considered as control. The peak current amplitude generated in the presence of each test article concentration was then used to calculate the % inhibition as compared to control response (10 mM ACh alone). These estimates were further corrected for vehicle response and run down corrected by normalizing with time matched control responses (10 mM ACh alone). The corrected percentages were then fit with a non-linear function in GraphPad Prism 6 (or later versions) to determine the IC50.
Exclusion criteria: (i) any n's with poor recording quality, (ii) control current amplitude <500 pA or (iii) significant outliers, as determined by the Grubbs' test.
ARMs compounds of Formula (I) of the invention were tested for antagonism of the nAChR in the above assay in […] experimental runs and the results are shown in Table 5 below. Antagonistic activity of the compounds of Formula (I) of the invention is reported as an IC50 value (half maximal inhibitory concentration) and the maximum percentage antagonism observed at the highest concentration of compound of Formula (I) tested, as indicated in Table 5. For compounds tested in more than one experimental run, the IC50 value is reported as an average.

[3] = maximum percentage antagonism at highest concentration tested, read-out: Maximum Response (%)

CC(=O)N[C@@H]1C[C@H](NC(C)(C)C)CC[C@@H]1N1CC[C@H](Nc2nc(CCNC(=O)[C@H]3CC[C@H](NC(=O)CCCO[C@H]4CC[C@H](OCCNC(=O)[C@H]5CC(=O)N(C)[C@@H]5c5cccnc5)CC4)CC3)nc3ccc(C(F)(F)F)cc23)C1=O [Example 4, (2S,3S)-N-(2-(((1R,4S)-4-(4-(((1S,4R)-4-((2-(4-(((S)-1-((1S,2R,4R)-2-Acetamido-4-(tert-butylamino)cyclohexyl)-2-oxopyrrolidin-3-yl)amino)-6-(trifluoromethyl)quinazolin-2-yl)ethyl)carbamoyl)cyclohexyl)amino)-4-oxobutoxy)cyclohexyl)oxy)ethyl)-1-methyl-5-oxo-2-(pyridin-3-yl)pyrrolidine-3-carboxamide]
EC50 [1]: 0.251 nM
Emax at 100 µM [2, 3]: 48%
IC50 [2]: > 100000 nM

CC(=O)N[C@@H]1C[C@H](NC(C)(C)C)CC[C@@H]1N1CC[C@H](Nc2nc(NC3CCN(C(=O)[C@H]4CC[C@H](NC(=O)CCCO[C@H]5CC[C@H](OCCNC(=O)[C@H]6CC(=O)N(C)[C@@H]6c6cccnc6)CC5)CC4)CC3)nc3ccc(C(F)(F)F)cc23)C1=O [Example 13, (2S,3S)-N-(2-(((1R,4S)-4-(4-(((1S,4R)-4-(4-((4-(((S)-1-((1S,2R,4R)-2Acetamido-4-(tert-butylamino)cyclohexyl)-2-oxopyrrolidin-3-yl)amino)-6-(trifluoromethyl)quinazolin-2-yl)amino)piperidine-1-carbonyl)cyclohexyl)amino)-4-oxobutoxy)cyclohexyl)oxy)ethyl)-1-methyl-5-oxo-2-(pyridin-3-yl)pyrrolidine-3-carboxamide]
EC50 [1]: 0.316 nM
Emax at 33.33 µM ([2]; maximum percentage antagonism at highest concentration tested, 33.33 μM, read-out: Maximum Response (%)): 68%
IC50 [2]: 10100 nM

CC(=O)N[C@@H]1C[C@H](N(C)C(C)C)CC[C@@H]1N1CC[C@H](Nc2nc(CCCNC(=O)[C@H]3CC[C@H](NC(=O)CCCO[C@H]4CC[C@H](OCCNC(=O)[C@H]5CC(=O)N(C)[C@@H]5c5cccnc5)CC4)CC3)nc3ccc(C(F)(F)F)cc23)C1=O [Example 6, (2S,3S)-N-(2-(((1R,4S)-4-(4-(((1S,4R)-4-((3-(4-(((S)-1-((1S,2R,4R)-2-Acetamido-4-(isopropyl(methyl)amino)cyclohexyl)-2-oxopyrrolidin-3-yl)amino)-6-(trifluoromethyl)quinazolin-2-yl)propyl)carbamoyl)cyclohexyl)amino)-4-oxobutoxy)cyclohexyl)oxy)ethyl)-1-methyl-5-oxo-2-(pyridin-3-yl)pyrrolidine-3-carboxamide]
EC50 [1]: 0.158 nM
Emax at 33.3 µM ([2]; maximum percentage antagonism at highest concentration tested, 33.3 μM, read-out: Maximum Response (%)): 48%
IC50 [2]: > 33300 nM

CC(=O)N[C@@H]1C[C@H](NC(C)(C)C)CC[C@@H]1N1CC[C@H](Nc2nc(COCCNC(=O)[C@H]3CC[C@H](NC(=O)CCCO[C@H]4CC[C@H](OCCNC(=O)[C@H]5CC(=O)N(C)[C@@H]5c5cccnc5)CC4)CC3)nc3ccc(C(F)(F)F)cc23)C1=O [Example 14, (2S,3S)-N-(2-(((1R,4S)-4-(4-(((1S,4R)-4-((2-((4-(((S)-1-((1S,2R,4R)-2-acetamido-4-(tert-butylamino)cyclohexyl)-2-oxopyrrolidin-3-yl)amino)-6-(trifluoromethyl)quinazolin-2-yl)methoxy)ethyl)carbamoyl)cyclohexyl)amino)-4-oxobutoxy)cyclohexyl)oxy)ethyl)-1-methyl-5-oxo-2-(pyridin-3-yl)pyrrolidine-3-carboxamide]
EC50 [1]: 0.501 nM
Emax at 100 µM [2, 3]: 54%
IC50 [2]: > 100000 nM

CC(=O)N[C@@H]1C[C@H](NC(C)(C)C)CC[C@@H]1N1CC[C@H](Nc2nc(NCC3CCN(C(=O)[C@H]4CC[C@H](NC(=O)CCCO[C@H]5CC[C@H](OCCNC(=O)[C@H]6CC(=O)N(C)[C@@H]6c6cccnc6)CC5)CC4)CC3)nc3ccc(C(F)(F)F)cc23)C1=O [Example 2, (2S,3S)-N-(2-(((1R,4S)-4-(4-(((1S,4R)-4-(4-(((4-(((S)-1-((1S,2R,4R)-2-Acetamido-4-(tert-butylamino)cyclohexyl)-2-oxopyrrolidin-3-yl)amino)-6-(trifluoromethyl)quinazolin-2-yl)amino)methyl)piperidine-1-carbonyl)cyclohexyl)amino)-4-oxobutoxy)cyclohexyl)oxy)ethyl)-1-methyl-5-oxo-2-(pyridin-3-yl)pyrrolidine-3-carboxamide]
EC50 [1]: 0.316 nM
Emax at 11.11 µM ([2]; maximum percentage antagonism at highest concentration tested, 11.11 μM, read-out: Maximum Response (%)): 9%
IC50 [2]: > 11100 nM

CC(=O)N[C@@H]1C[C@H](NC(C)(C)C)CC[C@@H]1N1CC[C@H](Nc2nc(C3CCN(C(=O)[C@H]4CC[C@H](NC(=O)CCCO[C@H]5CC[C@H](OCCNC(=O)[C@H]6CC(=O)N(C)[C@@H]6c6cccnc6)CC5)CC4)CC3)nc3ccc(C(F)(F)F)cc23)C1=O [Example 9, (2S,3S)-N-(2-(((1R,4S)-4-(4-(((1S,4R)-4-(4-(4-(((S)-1-((1S,2R,4R)-2-Acetamido-4-(tert-butylamino)cyclohexyl)-2-oxopyrrolidin-3-yl)amino)-6-(trifluoromethyl)quinazolin-2-yl)piperidine-1-carbonyl)cyclohexyl)amino)-4-oxobutoxy)cyclohexyl)oxy)ethyl)-1-methyl-5-oxo-2-(pyridin-3-yl)pyrrolidine-3-carboxamide]
EC50 [1]: 0.631 nM
Emax at 11.1 µM ([2]; maximum percentage antagonism at highest concentration tested, 11.1 μM, read-out: Maximum Response (%)): 2%
IC50 [2]: > 11100 nM
